# Results reported in patent US11447485B2, “Class of bifunctional compounds with quanternary ammonium salt structure” (Beijing Showby Pharmaceutical Co., Ltd., priority 2016, dated 2022).
# Like-named read-outs stand apart in the source and are kept apart here.
# How the values were obtained:
# [1] = tested on: tracheal smooth muscle of guinea pig; experiment: Relaxation of CCh-induced constriction of isolated guinea pig tracheal smooth muscle (Experimental Example 1); settings: in vitro; for Onset time (min) ± SD / Time for eliminating inhibition effect (min): CCh 3 × 10^−6 mol/L; for EC50: constriction induced by CCh 3 × 10^−6 mol/L, read-out: EC50 (μM) ± SD
# [2] = target: T1, human recombinant β1 adrenoceptor (Homo sapiens, UniProt P08588); experiment: cAMP accumulation, human recombinant β1 adrenoceptor; format: cell-based
# T1 construct: expressed in transfected cells
# Description: In order to measure the activity and selectivity of agonists to human β1 and β2 adrenoceptors, the cAMP accumulation of expressed receptors in each recombinant cell line was measured. cAMP was determined by homology radioimmunoassay, that is, cells were washed with PSB buffer solution and suspended in the buffer solution at room temperature to grow to 30000-40000 cells per well. The test compound was diluted with PSB buffer solution containing 0.1% BSA and tested at 11 gradient concentrations ranging from 100 uM to 0.1 pM. For the analysis of β1-adrenoceptor, 10 nM of ICI118551 was added to block the expression of β2-adrenoceptor in HEK293 cells. After the compound was added to the suspended cells, the scintillation plate was incubated at 37° C. for 10 minutes, the reaction was terminated with ice-cold detection buffer solution, and its radioactivity was measured after storage at 4° C. overnight.
# The agonistic activity (pEC50 value) was analyzed by regression using S-type dose response model of software package (GraphPad Software, San Diego, Calif.). Selectivity was calculated from the ratio of measured cAMP of β1 and β2 adrenoceptors, which was expressed as sel. β1/β2=(EC50 (β1)/EC50 (β2)).
# [3] = target: T2, human recombinant β2 adrenoceptor (Homo sapiens, UniProt P07550); experiment: cell-based; format: cell-based; settings: for EC50: cAMP accumulation
# T2 construct: expressed in transfected cells
# [4] = target: human recombinant M1 receptor (Homo sapiens, UniProt P11229); experiment: biochemical; format: binding; settings: for M1/M2: Mx/My = Ki(y)/Ki(x)
# [5] = target: human recombinant M2 receptor (Homo sapiens, UniProt P08172); experiment: biochemical; format: binding
# [6] = target: human recombinant M3 receptor (Homo sapiens, UniProt P20309); experiment: biochemical; format: binding; settings: for M1/M3 / M2/M3: Mx/My = Ki(y)/Ki(x)
# moderate and severe COPD = settings: phase II clinical study; cited from earlier work
# T1 sequence (P08588 whole entry): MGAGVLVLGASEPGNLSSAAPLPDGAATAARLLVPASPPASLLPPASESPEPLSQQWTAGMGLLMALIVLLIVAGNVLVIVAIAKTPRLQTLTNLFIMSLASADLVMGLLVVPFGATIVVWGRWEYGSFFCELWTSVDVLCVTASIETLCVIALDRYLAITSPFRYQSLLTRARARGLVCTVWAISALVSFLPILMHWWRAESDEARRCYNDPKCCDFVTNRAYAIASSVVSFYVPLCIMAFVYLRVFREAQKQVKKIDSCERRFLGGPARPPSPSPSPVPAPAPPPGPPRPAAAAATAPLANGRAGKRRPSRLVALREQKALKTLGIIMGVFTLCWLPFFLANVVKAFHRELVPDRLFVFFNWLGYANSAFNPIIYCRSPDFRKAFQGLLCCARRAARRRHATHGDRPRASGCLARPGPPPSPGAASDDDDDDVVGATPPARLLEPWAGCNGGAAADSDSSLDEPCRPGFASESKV
# Sequence of human recombinant M1 receptor (P11229 whole entry): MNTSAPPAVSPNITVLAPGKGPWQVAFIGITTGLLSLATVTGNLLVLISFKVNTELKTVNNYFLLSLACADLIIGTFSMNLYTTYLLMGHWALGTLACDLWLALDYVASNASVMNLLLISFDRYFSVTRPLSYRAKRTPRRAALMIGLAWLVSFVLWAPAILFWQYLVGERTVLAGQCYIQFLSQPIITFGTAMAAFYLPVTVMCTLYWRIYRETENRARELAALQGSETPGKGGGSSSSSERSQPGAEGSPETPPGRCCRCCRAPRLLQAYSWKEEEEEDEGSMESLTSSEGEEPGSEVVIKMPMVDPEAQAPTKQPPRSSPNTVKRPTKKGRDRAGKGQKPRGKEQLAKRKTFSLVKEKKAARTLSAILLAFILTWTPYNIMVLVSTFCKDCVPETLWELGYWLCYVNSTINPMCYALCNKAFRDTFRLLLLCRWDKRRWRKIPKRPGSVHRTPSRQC
# Sequence of human recombinant M3 receptor (P20309 whole entry): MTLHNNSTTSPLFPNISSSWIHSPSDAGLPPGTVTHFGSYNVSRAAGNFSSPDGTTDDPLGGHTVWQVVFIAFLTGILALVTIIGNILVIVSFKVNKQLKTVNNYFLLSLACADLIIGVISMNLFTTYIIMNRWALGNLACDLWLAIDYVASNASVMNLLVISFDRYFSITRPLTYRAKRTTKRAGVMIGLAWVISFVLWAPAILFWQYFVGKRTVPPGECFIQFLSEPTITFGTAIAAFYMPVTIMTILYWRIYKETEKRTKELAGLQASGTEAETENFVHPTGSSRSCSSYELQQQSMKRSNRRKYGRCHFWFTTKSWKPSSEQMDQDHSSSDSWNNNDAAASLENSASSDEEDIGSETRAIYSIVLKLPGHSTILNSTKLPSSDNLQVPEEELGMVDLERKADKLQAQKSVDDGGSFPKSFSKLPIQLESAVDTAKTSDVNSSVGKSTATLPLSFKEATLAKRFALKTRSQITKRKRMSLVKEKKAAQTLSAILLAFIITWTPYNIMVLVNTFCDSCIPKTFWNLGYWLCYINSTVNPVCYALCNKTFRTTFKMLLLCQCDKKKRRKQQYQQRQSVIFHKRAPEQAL
# Sequence of human recombinant M2 receptor (P08172 whole entry): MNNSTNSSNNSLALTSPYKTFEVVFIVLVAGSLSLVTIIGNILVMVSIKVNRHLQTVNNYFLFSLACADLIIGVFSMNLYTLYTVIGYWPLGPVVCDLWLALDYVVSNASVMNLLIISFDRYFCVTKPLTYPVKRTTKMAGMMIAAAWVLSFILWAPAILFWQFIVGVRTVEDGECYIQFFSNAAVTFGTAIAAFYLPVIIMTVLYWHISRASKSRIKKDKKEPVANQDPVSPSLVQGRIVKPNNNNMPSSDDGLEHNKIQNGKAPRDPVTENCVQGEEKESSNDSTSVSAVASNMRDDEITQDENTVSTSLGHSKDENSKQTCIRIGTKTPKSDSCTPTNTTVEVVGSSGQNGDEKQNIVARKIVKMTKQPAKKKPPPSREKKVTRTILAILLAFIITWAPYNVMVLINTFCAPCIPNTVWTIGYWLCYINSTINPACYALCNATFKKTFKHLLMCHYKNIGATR
compound,measurement,setting,value
"(R)-(−)-3-[(R)-2-hydroxy-2-cyclopentyl-2-phenyl]ethoxy-1-{3-[(4-(3-methyl-1-{(R)-[2-hydroxy-2-(6-hydroxy-2H-1,4-benzoxazin-3(4H)-one-8-yl)]ethylamino}ethylidene)phenoxy]propyl}-1-azabicyclo[2,2,2]octylonium bromide [Compound 63]",Onset time (min) ± SD,[1],6.19 ± 0.12 min
same,Time for eliminating inhibition effect (min),[1],more than 300 min
same,EC50,[1],0.0155 ± 0.0078 µM
same,EC50,"[2]; cAMP accumulation, 10 nM ICI118551 added, HEK293 cells, read-out: EC50 (β1)",17 ± 5.8 nM
same,sel (β1/β2),[3],80.8
same,Ki,"[4]; 3H-QNB […], 25° C., 5 h, read-out: hM1Ki",0.0493 ± 0.021 nM
same,Ki,"[5]; 3H-QNB 1.81 nmol/L, 25° C., 5 h, read-out: hM2Ki",0.323 ± 0.17 nM
same,Ki,"[6]; 3H-QNB […], 25° C., 5 h, read-out: hM3Ki",0.0198 ± 0.012 nM
"OCc1cc([C@@H](O)CNCCC[N+]23CCC(CC2)[C@@H](OC[C@@](O)(c2ccccc2)C2CCCC2)C3)ccc1O [Compound 1, (R)-(−)-3-[(R)-2-hydroxy-2-cyclopentyl-2-phenyl]ethoxy-1-{3-[(R)-2-(3-hydroxymethyl-4-hydroxy)phenyl-2-hydroxyethylamino]propyl}-1-azabicyclo[2,2,2]octylonium bromide]",Onset time (min) ± SD,[1],6.82 ± 0.30 min
same,Time for eliminating inhibition effect (min),[1],more than 300 min
same,EC50,[1]; Cavia porcellus,0.767 ± 0.18 µM
same,EC50,[2],197 ± 87 nM
same,sel (β1/β2),[3],15.4
same,EC50,[3],12.8 ± 4.2 nM
same,Ki,[4],0.733 ± 0.32 nM
same,M1/M2,[4],1.3206
same,Ki,[5],0.968 ± 0.15 nM
same,Ki,[6],0.561 ± 0.22 nM
same,M1/M3,[6],0.7653
same,M2/M3,[6],0.5795
"OCc1cc([C@@H](O)CNCCCC[N+]23CCC(CC2)[C@@H](OC[C@@](O)(c2ccccc2)C2CCCC2)C3)ccc1O [Compound 3, (R)-(−)-3-[(R)-2-hydroxy-2-cyclopentyl-2-phenyl]ethoxy-1-{4-[(R)-2-(3-hydroxymethyl-4-hydroxy)phenyl-2-hydroxyethylamino]butyl}-1-azabicyclo[2,2,2]octylonium bromide]",Onset time (min) ± SD,[1],5.38 ± 0.68 min
same,Time for eliminating inhibition effect (min),[1],more than 300 min
same,EC50,[1]; Cavia porcellus,0.355 ± 0.1 µM
same,EC50,[2],160 ± 72 nM
same,sel (β1/β2),[3],15.6
same,EC50,[3],10.3 ± 2.4 nM
same,Ki,[4],0.767 ± 0.16 nM
same,M1/M2,[4],1.2229
same,Ki,[5],0.938 ± 0.4 nM
same,Ki,[6],0.451 ± 0.18 nM
same,M1/M3,[6],0.5880
same,M2/M3,[6],0.4808
COc1cc(NC(=O)CCN2CCC(OC(=O)Nc3ccccc3-c3ccccc3)CC2)c(Cl)cc1CNC[C@H](O)c1ccc(O)c2[nH]c(=O)ccc12 [TD5959],effect on moderate and severe COPD,moderate and severe COPD,good effect on moderate and severe COPD
